Starred links: 1 amine or outer side, 2 acyl side, 3 side chain; linkers in the order of their positions; H or OH if unused. Positions of bridges follow the written chain, without caps; N, C: chain ends. Non-standard residues stand in square brackets, D forms with d. Residues, ends and D or L forms follow the SMILES beside them. *: point of attachment. hTyr(3S-OH,4S-OH,3'-OSO3H) = N[C@H](C(=O)O)[C@H](O)[C@@H](O)c1ccc(O)c(OS(=O)(=O)O)c1; Orn(4R-OH,5R-OH) = O=C([C@H](C[C@@H](O)[C@@H](O)N[*:3])N[*:1])[*:2]; Pro(3S-OH,4S-Me) = C[C@H]1CN[C@H](C(=O)O)[C@H]1O; X1 = CCCCCOc1ccc(-c2cc(-c3ccc(C(=O)*)cc3)no2)cc1; Gln(3R-OH) = NC(=O)C[C@@H](O)[C@H](N)C(=O)O; Hyp = O=C(O)[C@@H]1C[C@@H](O)CN1
What was measured:
UGT2B15 = molecular target: T1, UGT2B15 (Homo sapiens, UniProt P54855); assay type: in vitro ADME
T1 sequence (P54855 24-530): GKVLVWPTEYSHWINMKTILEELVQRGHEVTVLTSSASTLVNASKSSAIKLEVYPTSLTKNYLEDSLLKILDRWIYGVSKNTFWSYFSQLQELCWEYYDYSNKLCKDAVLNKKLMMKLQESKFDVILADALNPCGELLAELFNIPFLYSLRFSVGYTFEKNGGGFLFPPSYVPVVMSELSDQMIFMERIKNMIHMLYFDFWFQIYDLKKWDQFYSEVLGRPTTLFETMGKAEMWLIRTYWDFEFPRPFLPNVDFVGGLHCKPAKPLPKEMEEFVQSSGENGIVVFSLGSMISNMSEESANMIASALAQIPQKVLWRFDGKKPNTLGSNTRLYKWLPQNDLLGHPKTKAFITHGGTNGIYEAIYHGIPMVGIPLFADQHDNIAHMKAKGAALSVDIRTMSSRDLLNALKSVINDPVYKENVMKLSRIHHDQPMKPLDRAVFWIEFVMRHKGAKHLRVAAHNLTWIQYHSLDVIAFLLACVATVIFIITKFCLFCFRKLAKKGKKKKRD

ALDH = assay type: in vitro ADME; details: human, pooled human liver cytosol
OATP1B3 [1] = molecular target: T2, OATP1B3 (Homo sapiens, UniProt Q9NPD5); details: IC50, OATP1B3 [X10], mean ± SD (n = 3)
T2 sequence (Q9NPD5 1-702): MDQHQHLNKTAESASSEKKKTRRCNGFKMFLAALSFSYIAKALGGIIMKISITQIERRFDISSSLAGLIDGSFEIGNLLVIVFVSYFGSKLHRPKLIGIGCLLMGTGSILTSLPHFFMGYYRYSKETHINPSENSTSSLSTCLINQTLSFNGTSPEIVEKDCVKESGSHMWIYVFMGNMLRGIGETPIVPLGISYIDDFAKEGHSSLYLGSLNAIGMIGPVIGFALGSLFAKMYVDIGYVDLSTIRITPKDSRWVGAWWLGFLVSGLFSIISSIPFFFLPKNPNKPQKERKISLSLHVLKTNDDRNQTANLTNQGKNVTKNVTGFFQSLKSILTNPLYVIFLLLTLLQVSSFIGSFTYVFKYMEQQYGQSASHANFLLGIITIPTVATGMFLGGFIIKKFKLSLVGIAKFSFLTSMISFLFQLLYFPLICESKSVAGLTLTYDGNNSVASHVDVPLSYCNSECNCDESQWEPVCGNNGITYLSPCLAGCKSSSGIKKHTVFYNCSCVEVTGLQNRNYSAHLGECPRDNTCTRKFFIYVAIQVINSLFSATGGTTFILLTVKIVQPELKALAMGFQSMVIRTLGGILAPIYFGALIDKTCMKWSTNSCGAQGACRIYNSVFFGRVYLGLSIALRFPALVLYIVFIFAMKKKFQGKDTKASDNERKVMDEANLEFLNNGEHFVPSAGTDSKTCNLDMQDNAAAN

OATP1B3 [2] = molecular target: T2, OATP1B3; details: antibiotic as perpetrator, salvianolic acid B (X10) as victim; (Cmax × fu-p × R)/IC50
OATP1B3 [3] = molecular target: T2, OATP1B3; assay: in vitro
OAT2 = molecular target: T3, OAT2 (Homo sapiens, UniProt Q9Y694); assay: OAT2 inhibition by antibiotics, transfected HEK293 cells, tanshinol as substrate; assay type: in vitro ADME; details: for inhibition at 100 µM: HEK293, read-out: Inhibition of OAT2
T3 sequence (Q9Y694 1-546 isoform Q9Y694-2): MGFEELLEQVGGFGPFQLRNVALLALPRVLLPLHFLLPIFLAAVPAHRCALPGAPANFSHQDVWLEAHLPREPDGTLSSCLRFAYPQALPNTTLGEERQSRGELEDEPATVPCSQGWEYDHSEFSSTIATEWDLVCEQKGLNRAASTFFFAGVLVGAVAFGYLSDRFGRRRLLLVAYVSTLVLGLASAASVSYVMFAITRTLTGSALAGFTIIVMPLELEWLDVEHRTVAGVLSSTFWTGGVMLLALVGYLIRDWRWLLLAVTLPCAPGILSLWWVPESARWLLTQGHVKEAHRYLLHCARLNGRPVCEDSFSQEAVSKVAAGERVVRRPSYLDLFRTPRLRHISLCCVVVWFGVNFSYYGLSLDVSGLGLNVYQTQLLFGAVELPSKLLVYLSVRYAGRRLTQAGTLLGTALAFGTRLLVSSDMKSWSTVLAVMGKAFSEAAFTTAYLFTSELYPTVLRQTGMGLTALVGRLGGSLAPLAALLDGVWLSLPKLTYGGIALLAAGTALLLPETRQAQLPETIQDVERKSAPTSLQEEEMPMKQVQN

OAT1 = molecular target: T4, OAT1 (Homo sapiens, UniProt Q4U2R8); assay: OAT1 inhibition by antibiotics, transfected HEK293 cells, tanshinol as substrate; details: for inhibition at 100 μmol/L: human
T4 sequence (Q4U2R8 1-563): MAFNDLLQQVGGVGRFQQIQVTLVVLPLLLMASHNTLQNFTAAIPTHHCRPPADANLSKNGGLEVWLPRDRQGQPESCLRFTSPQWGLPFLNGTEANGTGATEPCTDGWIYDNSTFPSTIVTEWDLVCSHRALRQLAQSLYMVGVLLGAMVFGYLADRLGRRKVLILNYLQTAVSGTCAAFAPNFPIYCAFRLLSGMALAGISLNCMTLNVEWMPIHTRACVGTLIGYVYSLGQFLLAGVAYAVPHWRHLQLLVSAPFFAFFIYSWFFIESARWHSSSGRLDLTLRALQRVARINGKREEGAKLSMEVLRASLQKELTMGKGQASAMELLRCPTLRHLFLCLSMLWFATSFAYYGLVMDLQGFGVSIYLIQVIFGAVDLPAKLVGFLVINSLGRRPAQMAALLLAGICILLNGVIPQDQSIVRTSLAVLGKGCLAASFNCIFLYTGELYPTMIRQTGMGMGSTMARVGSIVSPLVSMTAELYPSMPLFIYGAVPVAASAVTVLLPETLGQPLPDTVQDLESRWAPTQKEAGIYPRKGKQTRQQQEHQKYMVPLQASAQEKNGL

| SMILES | IC50 (OATP1B3 [1]) [µM] | Inhibition DDI index, OATP1B3 (OATP1B3 [2]) | inhibition at 100 μmol/L (OATP1B3 [3]) [%] | IC50 (UGT2B15) [µM] | also measured |
| --- | --- | --- | --- | --- | --- |
| CO[C@@]1(NC(=O)Cc2cccs2)C(=O)N2C(C(=O)O)=C(COC(N)=O)CS[C@@H]21 [A20, cefoxitin] | 26 ± 19 | 2.81 |  | 57 ± 11 | Inhibition DDI index, UGT2B15 (UGT2B15; antibiotic as perpetrator, senkyunolide I (X5) as victim, (Cmax × fu-p × R)/IC50): 1.28; inhibition at 1000 μmol/L (UGT2B15; human, cDNA-expressed UGT2B15): ≥ 90%; IC50 (ALDH): 983 ± 117 µM; inhibition at 1000 μmol/L (ALDH): 56 to 88%; inhibition at 1000 μmol/L (OATP1B3 [3]): > 90% |
| C[C@H]1COc2c(N3CCN(C)CC3)c(F)cc3c(=O)c(C(=O)O)cn1c23 [A31, levofloxacin] |  |  |  |  | IC50 (OAT2): 50 ± 9 µM; inhibition at 100 µM (OAT2): 60 to 84%; Inhibition DDI index, OAT2 (OAT2; antibiotic as perpetrator, tanshinol (X8) as victim, (Cmax × fu-p × R)/IC50): 0.36 |
| COc1c(N2C[C@@H]3CCCN[C@@H]3C2)c(F)cc2c(=O)c(C(=O)O)cn(C3CC3)c12 [A33, moxifloxacin] | 17 ± 2 |  | 64 to 88 |  |  |
| CC[C@H]1OC(=O)[C@H](C)[C@@H](O[C@H]2C[C@@](C)(OC)[C@@H](O)[C@H](C)O2)[C@H](C)[C@@H](O[C@@H]2O[C@H](C)C[C@H](N(C)C)[C@H]2O)[C@](C)(O)C[C@@H](C)C(=O)[C@H](C)[C@@H](O)[C@]1(C)O [A34, erythromycin] | 3 ± 1 | 0.35–1.04 | > 90 |  |  |
| CCCCCOc1ccc(-c2cc(-c3ccc(C(=O)N[C@H]4C[C@@H](O)[C@@H](O)NC(=O)[C@@H]5[C@@H](O)[C@@H](C)CN5C(=O)[C@H]([C@H](O)CC(N)=O)NC(=O)[C@H]([C@H](O)[C@@H](O)c5ccc(O)c(OS(=O)(=O)O)c5)NC(=O)[C@@H]5C[C@@H](O)CN5C(=O)[C@H]([C@@H](C)O)NC4=O)cc3)no2)cc1 [A40, micafungin] (X1-[Orn(4R-OH,5R-OH)]T[Hyp][hTyr(3S-OH,4S-OH,3'-OSO3H)][Gln(3R-OH)][Pro(3S-OH,4S-Me)]; lactam 1-C) | 3 ± 1 |  | > 90 | 3 | inhibition at 100 μmol/L (UGT2B15; human, cDNA-expressed UGT2B15): ≥ 90%; IC50 (OAT2): 26 ± 2 µM; inhibition at 100 µM (OAT2): > 90%; IC50 (OAT1): 43 ± 4 µM; inhibition at 100 μmol/L (OAT1): ≥ 90% |
| CC[C@H](C)C[C@H](C)CCCCCCCCC(=O)N[C@H]1C[C@@H](O)[C@@H](NCCN)NC(=O)[C@@H]2[C@@H](O)CCN2C(=O)[C@H]([C@H](O)CCN)NC(=O)[C@H]([C@H](O)[C@@H](O)c2ccc(O)cc2)NC(=O)[C@@H]2C[C@@H](O)CN2C(=O)[C@H]([C@@H](C)O)NC1=O [A41, caspofungin] | 1 | 0.35 | > 90 | 39 ± 2 | inhibition at 100 μmol/L (UGT2B15; human, cDNA-expressed UGT2B15): 60 to 88%; IC50 (OAT1): 7 ± 2 µM; inhibition at 100 μmol/L (OAT1): 63 to 88% |

Further lines, with some results ahead:

| IC50 (OATP1B3 [1]) [µM] | Inhibition DDI index, OATP1B3 (OATP1B3 [2]) | inhibition at 100 μmol/L (OATP1B3 [3]) [%] | SMILES | IC50 (UGT2B15) [µM] | also measured |
| --- | --- | --- | --- | --- | --- |
| 2 |  | > 90 | CO[C@H]1/C=C/O[C@@]2(C)Oc3c(C)c(O)c4c(O)c(c(/C=N/N5CCN(C)CC5)c(O)c4c3C2=O)NC(=O)/C(C)=C\C=C\[C@H](C)[C@H](O)[C@@H](C)[C@@H](O)[C@@H](C)[C@H](OC(C)=O)[C@@H]1C [A39, rifampin] |  |  |
| 1 |  | 64 to 88 | C[C@@H]1[C@H](O)[C@@H](C)/C=C/C=C/C=C/C=C/C=C/C=C/C=C/[C@H](O[C@@H]2O[C@H](C)[C@@H](O)[C@H](N)[C@@H]2O)C[C@@H]2O[C@](O)(C[C@@H](O)C[C@@H](O)[C@H](O)CC[C@@H](O)C[C@@H](O)CC(=O)O[C@H]1C)C[C@H](O)[C@H]2C(=O)O [A42, amphotericin B] |  | IC50 (ALDH): 87 ± 9 µM; inhibition at 100 μmol/L (ALDH): 56 to 88% |
| 4 ± 1 |  | 64 to 88 | CCC(C)n1ncn(-c2ccc(N3CCN(c4ccc(OCC5COC(Cn6cncn6)(c6ccc(Cl)cc6Cl)O5)cc4)CC3)cc2)c1=O (stereo not drawn) [A44, itraconazole] |  |  |

From publication PMC6804443 (Acta Pharmaceutica Sinica. B, 2019)
